PubChem BioAssay (NCI)
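96-well plates; 48 h exposure; 5 concentrations. Endpoints by linear interpolation between flanking doses. Not reached: highest tested concentration assigned. TGI: concentration producing complete growth inhibition.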

Tests used:
Test in all cases: NCI tumour cell line growth inhibition, 48 h
786-0 renal = test system: 786-0 renal
A498 renal = test system: A498 renal
A549 NSCLC = test system: A549 NSCLC
ACHN renal = test system: ACHN renal
BT-549 breast = test system: BT-549 breast
CAKI-1 renal = test system: CAKI-1 renal
COLO 205 colon = test system: COLO 205 colon
DU-145 prostate = test system: DU-145 prostate
EKVX NSCLC = test system: EKVX NSCLC
HCC-2998 colon = test system: HCC-2998 colon
HCT-116 colon = test system: HCT-116 colon
HCT-15 colon = test system: HCT-15 colon
HOP-62 NSCLC = test system: HOP-62 NSCLC
HOP-92 NSCLC = test system: HOP-92 NSCLC
HT29 colon = test system: HT29 colon
IGROV1 ovarian = test system: IGROV1 ovarian
K-562 leukemia = test system: K-562 leukemia
KM12 colon = test system: KM12 colon
M14 melanoma = test system: M14 melanoma
MCF7 breast = test system: MCF7 breast
MDA-MB-231 breast = test system: MDA-MB-231 breast
MDA-MB-435 = test system: MDA-MB-435
MDA-N = test system: MDA-N
MOLT-4 leukemia = test system: MOLT-4 leukemia
NCI-H226 lung = test system: NCI-H226 lung
NCI-H23 lung = test system: NCI-H23 lung
NCI-H460 lung = test system: NCI-H460 lung
NCI-H522 lung = test system: NCI-H522 lung
NCI/ADR-RES ovarian = test system: NCI/ADR-RES ovarian
OVCAR-3 ovarian = test system: OVCAR-3 ovarian
OVCAR-4 ovarian = test system: OVCAR-4 ovarian
OVCAR-5 ovarian = test system: OVCAR-5 ovarian
OVCAR-8 ovarian = test system: OVCAR-8 ovarian
PC-3 prostate = test system: PC-3 prostate
RPMI-8226 leukemia = test system: RPMI-8226 leukemia
RXF 393 renal = test system: RXF 393 renal
SF-268 CNS = test system: SF-268 CNS
SF-295 CNS = test system: SF-295 CNS
SF-539 CNS = test system: SF-539 CNS
SK-MEL-2 melanoma = test system: SK-MEL-2 melanoma
SK-MEL-28 melanoma = test system: SK-MEL-28 melanoma
SK-MEL-5 melanoma = test system: SK-MEL-5 melanoma
SK-OV-3 ovarian = test system: SK-OV-3 ovarian
SN12C renal = test system: SN12C renal
SNB-19 CNS = test system: SNB-19 CNS
SNB-75 CNS = test system: SNB-75 CNS
SR leukemia = test system: SR leukemia
SW-620 colon = test system: SW-620 colon
T-47D breast = test system: T-47D breast
TK-10 renal = test system: TK-10 renal
U251 CNS = test system: U251 CNS
UACC-257 melanoma = test system: UACC-257 melanoma
UACC-62 melanoma = test system: UACC-62 melanoma
UO-31 renal = test system: UO-31 renal

Measured: TGI

CN1C(=O)[C@@H]2N(CSC2(C)C)C1=S
> 100 µM: all assays above
